Measurements from US8084621B2, “3-Pyrrolo[b]cyclohexylene-2-dihydroindolinone derivatives and uses thereof” (Jiangsu Simcere Pharmaceutical R&D Co. Ltd., priority 2006, dated 2011).

Legend:
Format in all cases: cell-based
[1] = tested on: Human Pancreatic Carcinoma Cells (PANC-1); test: Tumor cell proliferation assay (MTT), PANC-1; settings: for inhibition at 10 µM: concentration of 10^−5 mol/L, preliminary screening, 72 hours, read-out: Inhibition rate % PANC-1; for IC50: secondary screening, 48 hours
[2] = tested on: Human Colon Cancer Cell Line (HT-29); test: Tumor cell proliferation assay (MTT), HT29; settings: for inhibition at 10 µM: concentration of 10^−5 mol/L, preliminary screening, 72 hours, read-out: Inhibition rate % HT29; for IC50: secondary screening, 48 hours
[3] = tested on: Human Pancreatic Carcinoma Cell Line (BXPC-3); test: Tumor cell proliferation assay (MTT), BXPC-3; settings: for inhibition at 10 µM: concentration of 10^−5 mol/L, preliminary screening, 72 hours, read-out: Inhibition rate % BXPC-3; for IC50: secondary screening, 48 hours

| IC50 [1] [µM] | IC50 [2] [µM] | IC50 [3] [µM] | SMILES | inhibition at 10 µM [1] [%] | inhibition at 10 µM [2] [%] | inhibition at 10 µM [3] [%] |
| --- | --- | --- | --- | --- | --- | --- |
| 1.63 | 0.93 | 0.97 | Cc1[nH]c2c(c1C(=O)NCC(O)CN1CCCC1)CCC/C2=C1/C(=O)Nc2ccccc21 (stereo not drawn) [I-70, N-(2-hydroxy-3-(pyrrolidin-1-yl)propyl)-2-methyl-7-[1,2-dihydro-2-oxo-3H-indol-(Z)-3-ylidene]-4,5,6,7-tetrahydro-1H-indole-3-carboxamide] | 97.4 | 94.7 | 98.7 |
| 0.66 | 1.02 | 1.16 | CCN(CC)CC(O)CNC(=O)c1c(C)[nH]c2c1CCC/C2=C1/C(=O)Nc2ccccc21 (stereo not drawn) [I-63, N-(3-(diethylamino)-2-hydroxypropyl)-2-methyl-7-[1,2-dihydro-2-oxo-3H-indol-(Z)-3-ylidene]-4,5,6,7-tetrahydro-1H-indole-3-carboxamide] | 92.1 | 92.7 | 97.3 |
